Experimental data published in PMC12477080, “Polychlorinated biphenyls (PCBs) interact with drug metabolism in vivo” (Archives of Toxicology, 2025).

Assays:
CYP2B6 = experiment: CYP phenotyping cocktail clinical study: efavirenz/8-OH-efavirenz metabolic ratio and its association with PCB plasma levels; settings: linear regression of MR AUC0–8 h 8-OH-efavirenz/efavirenz (CYP2B6 activity) on PCB plasma concentration
Procedure: The participants were ascertained not to have any acute disease by medical history, physical examination, laboratory screening, including hematological and biochemical blood tests, and a 12-lead electrocardiogram. […] The demographic data of the subjects are summarized in Table 1 in the supplemental data. At the enrollment visit, 2 blood samples (9 ml each) were collected into ethylenediaminetetraacetic acid (EDTA)-containing tubes taken from each subject for analyzing the plasma concentrations of PCB congeners and for pharmacogenetic analysis.
Participants stayed fasted from the evening before until 3 h after drug administration. After that, a meal was provided. Water and juice were permitted but alcoholic and caffeinated beverages were not allowed from the evening before drug administration until the last blood sample was taken on the next day. Venous blood samples (9 ml each) were collected through an intravenous catheter immediately before and 0.25, 0.5, 0.75, 1, 1.5, 2, 2.5, 3, 4, 5, 6, 7, 8, and 24 h after drug administration. Blood was drawn into EDTA-coated tubes, centrifuged at 1500 g for 10 min at 4 °C, and plasma samples were subsequently stored at − 80 °C until further analysis. After completely voiding the bladder immediately before drug administration, the participants collected urine from 0 to 24 h after drug administration. After weighing the collected urine, a 10 ml aliquot of each fraction was taken.
Commercially sourced standards and internal standards were used for quantification (see Supplemental Materials). In brief, 20 µl of the plasma samples were protein-precipitated with 80 µl methanol containing all internal standards or were treated for 16 h at 37 °C with 2 µl β-glucuronidase (1,000,000 Units) for deconjugation before protein precipitation with 78 µl methanol containing internal standards. Samples were centrifuged for 20 min, at 4 °C and 17,000 × g, and 40 µl of the supernatants were diluted with 40 µl LC–MS grade water, centrifuged again for 5 min at 4 °C and 17,000 × g and 50 µl supernatant were transferred to LC–MS vials 5 µl of the samples were injected into the LC–MS system.
An Agilent 1290 Infinity II UHPLC coupled with a SCIEX QTRAP6500 + triple quadrupole mass spectrometer was used. Chromatographic separation was achieved on an Agilent Poroshell 120 EC-C18 (1.9 µm, 2.1 × 50 mm) column with A: 0.1% formic acid in water and B: methanol with a flow rate of 0.7 ml/min and a total run time of 8.5 min. Analytes were eluted using a gradient program. The following gradient steps represent gradual changes in % B over time: 5% B from 0 to 0.2 min, 30% B at 2 min, 34% B at 4.8 min, 95% B at 6.5 min, 95% B at 7.5 min and re-equilibrating to 5% B at 7.7 min and 5%B till 8.5 min. A representative chromatogram is shown in supplemental Fig. 2. The scheduled MRM mode was applied for analyte detection in both positive and negative ESI modes (Supplementary Table 4). Calibration curves were constructed with linear regression using weighted (1/x^2) models (detailed information in supplemental methods).
Partial areas under the plasma concentration–time curves from 0 to 3 h (AUC0–3 h), from 0 to 4 h (AUC0–4 h), and from 0 to 8 h (AUC0–8 h) were calculated based on measured concentrations by the linear trapezoidal rule without extrapolation. […] Metabolic ratios (MR) were calculated by dividing the partial AUC of the metabolite by the respective partial AUC of the parent drug. The MRs were used as biomarkers for the individual CYP activities of the study subjects.

CYP1A2 mRNA = CYP1A2 mRNA expression in primary human hepatocytes (qRT-PCR); format: cell-based; settings: three donors, 48 h exposure, PCB118 0.1–0.5 µM, omeprazole positive control
Human CYP1A2 = molecular target: T1, Human CYP1A2 (Homo sapiens, UniProt P05177); experiment: In vitro metabolism by CYP1A2 Supersomes; format: in vitro ADME; settings: 10 µM substrate, 50 pmol/mL CYP1A2 supersomes, 2 mM NADPH; 1 h (phenacetin), 1 and 4 h (PCB118)
T1 construct: purchased; host or cells: insect cells
T1 sequence (P05177 2-516 limits assumed): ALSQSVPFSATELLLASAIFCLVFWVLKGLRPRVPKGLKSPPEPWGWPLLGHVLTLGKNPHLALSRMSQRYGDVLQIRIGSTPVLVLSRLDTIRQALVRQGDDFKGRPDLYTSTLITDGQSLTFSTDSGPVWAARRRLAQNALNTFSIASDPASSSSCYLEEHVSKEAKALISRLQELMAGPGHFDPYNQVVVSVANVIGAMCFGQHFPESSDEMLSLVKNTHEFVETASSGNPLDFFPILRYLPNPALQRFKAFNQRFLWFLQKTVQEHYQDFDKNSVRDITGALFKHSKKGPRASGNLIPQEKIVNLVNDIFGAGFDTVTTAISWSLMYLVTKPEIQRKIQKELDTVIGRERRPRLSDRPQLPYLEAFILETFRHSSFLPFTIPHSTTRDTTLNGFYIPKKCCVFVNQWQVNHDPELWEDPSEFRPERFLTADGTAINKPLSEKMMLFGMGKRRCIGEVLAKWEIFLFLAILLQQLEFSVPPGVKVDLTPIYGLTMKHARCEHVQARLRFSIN
Procedure: To investigate the metabolism of PCB118 by CYP1A2, incubation assays were conducted using CYP1A2 supersomes in a total reaction volume of 100 µL. Reaction mixtures were assembled on ice. […] Reactions were initiated by the addition of CYP1A2 supersomes.
To assess potential non-enzymatic transformations and confirm NADPH-dependent metabolism, control incubations were performed under the following conditions: buffer and enzyme only (no-substrate control), substrate, buffer, and NADPH without enzyme (no-enzyme control), and substrate, buffer, and enzyme without NADPH (no-NADPH control). Each experimental condition was conducted in triplicate, while control conditions were performed as single replicates.
The resulting supernatants (100 µL) were transferred to LC–MS vials, yielding samples with 80% methanol content for analysis. For the detection of hydroxylated PCB metabolites, reactions were stopped by adding 500 µL methanol, followed by the addition of 50 µL of an internal standard mix (10 ng/mL). Samples were vortexed for 1 min and centrifuged at 4,500 rpm for 10 min. The resulting supernatants were transferred to glass LC vials and evaporated under a nitrogen stream at 45 °C until approximately 50 µL remained. Samples were then reconstituted in 100 µL of 0.1 M ammonium acetate buffer (pH 5.3) before transfer to inserts for LC–MS analysis.
To determine whether PCB118 serves as a substrate for CYP1A2 and could act as a competitive inhibitor for other CYP1A2 substrates, we conducted in vitro metabolism experiments. […] In parallel, CYP1A2-mediated metabolism of PCB118 was assessed. […] The identity of 4-OH-CB107 was verified by comparison with an authentic reference standard, showing identical retention time and spectral characteristics (supplemental Fig. 1).

**Q.** Which results are given for `Clc1ccc(-c2cc(Cl)c(Cl)cc2Cl)cc1Cl` [PCB118]?
**A.** t value (CYP2B6): 1,020; β (standardized regression coefficient) (CYP2B6): 0,255; t value (CYP2B6; PM excl): 0,839; β (standardized regression coefficient) (CYP2B6; PM excl): 0,227; effect on CYP1A2 mRNA expression (CYP1A2 mRNA): did not significantly alter CYP1A2 mRNA levels; CYP1A2-mediated metabolism of the substrate (Human CYP1A2): catalyzed the hydroxylation of PCB118, leading to the formation of 4-OH-CB107
